Numbered stars: 1 amine (or outer) side, 2 acyl side, 3 side chain; on linkers, the order of the positions; unused ones are H or OH. Bridge positions count the residues as written; N and C are the ends. Square brackets hold non-standard residues; d marks the D form. Peptide text beside a SMILES is read from it. * marks the point of attachment. Phe(3-CH2NH2) = O=C([C@H](Cc1cccc(CN[*:3])c1)N[*:1])[*:2]; Phe(4-COOH) = N[C@@H](Cc1ccc(C(=O)O)cc1)C(=O)O; Bip = N[C@@H](Cc1ccc(-c2ccccc2)cc1)C(=O)O; Phe(3-NH2) = Nc1cccc(C[C@H](N)C(=O)O)c1; Phe(4-NH2) = Nc1ccc(C[C@H](N)C(=O)O)cc1; Phe(3-Me) = Cc1cccc(C[C@H](N)C(=O)O)c1; hArg = N=C(N)NCCCC[C@H](N)C(=O)O; Cha = N[C@@H](CC1CCCCC1)C(=O)O; Agb = N=C(N)NCC[C@H](N)C(=O)O; Carboxymethyl = O=C(O)C*; NMeA = CN[C@@H](C)C(=O)O; Orn = NCCC[C@H](N)C(=O)O; Dab = NCC[C@H](N)C(=O)O
Biological target: T1, Alexa fluor-647 labeled human PD-L1-Ig binding to Jurkat cell line over-expressing human PD-1 (Homo sapiens, UniProt Q15116)
T1 construct: expressed in transfected cells; host or cells: Jurkat
Assay: Jurkat-PD-1 Cell Binding High-Content Screening Assay (CBA): Method 3 (Alexa fluor-647 labeled PD-L1-Ig)
Settings: Jurkat-PD-1 cells, Alexa fluor-647 labeled PD-L1-Ig 177 nM; head μM; read-out: CBA Method 3 μM
Outline: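 Readout by high-content imaging of PFA-fixed, Hoechst-stained cells after 1 h with 177 nM (final) Alexa fluor-647 PD-L1-Ig. Compound was added first to hPD-1 Jurkat cells in RPMI plus 10% FCS for 2 h at 37 °C.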

T1 sequence (Q15116 25-288): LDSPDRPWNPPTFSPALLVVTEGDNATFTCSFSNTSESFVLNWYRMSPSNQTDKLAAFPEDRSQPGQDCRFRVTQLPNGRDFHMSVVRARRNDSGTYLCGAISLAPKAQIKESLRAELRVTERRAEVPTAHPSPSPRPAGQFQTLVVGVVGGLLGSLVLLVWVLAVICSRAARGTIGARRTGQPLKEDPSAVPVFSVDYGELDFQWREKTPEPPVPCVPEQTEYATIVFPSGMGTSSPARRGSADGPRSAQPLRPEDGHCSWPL

IC50 [µM]	SMILES
0.01	Cc1cccc(C[C@@H]2NC(=O)[C@H](CC(=O)O)NC(=O)[C@H](Cc3ccc(OCC(=O)O)cc3)NC(=O)[C@H](CCNC(=N)N)NC(=O)CSC[C@@H](C(=O)N[C@@H](CCN)C(N)=O)NC(=O)[C@H](CCCN)NC(=O)[C@H](C(C)C)NC(=O)[C@H](CC3CCCCC3)NC(=O)[C@H](CCN)NC(=O)[C@@H](CC(C)C)NC(=O)[C@H](C)N(C)C(=O)[C@H](CCC(N)=O)NC(=O)[C@H](Cc3ccc(-c4ccccc4)cc3)NC(=O)[C@H](Cc3ccc(C(=O)O)cc3)NC2=O)c1 [Example 5182] ({CH2CO}-[Agb]Y(Carboxymethyl)D[Phe(3-Me)][Phe(4-COOH)][Bip]Q[NMeA][dL][Dab][Cha]V[Orn]C[Dab]-NH2; thioether N-14)
0.05	Cc1cccc(C[C@@H]2NC(=O)[C@H](CC(=O)O)NC(=O)[C@H](Cc3ccc(OCC(=O)O)cc3)NC(=O)[C@H](CC3CCCCC3)NC(=O)CSC[C@@H](C(=O)N[C@@H](CCN)C(N)=O)NC(=O)[C@H](CCCN)NC(=O)[C@H](C(C)C)NC(=O)[C@H](Cc3cccc(CN)c3)NC(=O)[C@H](CCN)NC(=O)[C@@H](CC(C)C)NC(=O)[C@H](C)N(C)C(=O)[C@H](CCC(N)=O)NC(=O)[C@H](Cc3ccc(-c4ccccc4)cc3)NC(=O)[C@H](Cc3ccc(C(=O)O)cc3)NC2=O)c1 [Example 5188] ({CH2CO}-[Cha]Y(Carboxymethyl)D[Phe(3-Me)][Phe(4-COOH)][Bip]Q[NMeA][dL][Dab][Phe(3-CH2NH2)]V[Orn]C[Dab]-NH2; thioether N-14)
0.33	Cc1cccc(C[C@@H]2NC(=O)[C@H](CC(=O)O)NC(=O)[C@H](Cc3ccc(OCC(=O)O)cc3)NC(=O)[C@H](CC3CCCCC3)NC(=O)CSC[C@@H](C(=O)N[C@@H](CCN)C(N)=O)NC(=O)[C@H](CCCN)NC(=O)[C@H](C(C)C)NC(=O)[C@H](Cc3ccc(N)cc3)NC(=O)[C@H](CCN)NC(=O)[C@@H](CC(C)C)NC(=O)[C@H](C)N(C)C(=O)[C@H](CCC(N)=O)NC(=O)[C@H](Cc3ccc(-c4ccccc4)cc3)NC(=O)[C@H](Cc3ccc(C(=O)O)cc3)NC2=O)c1 [Example 5189] ({CH2CO}-[Cha]Y(Carboxymethyl)D[Phe(3-Me)][Phe(4-COOH)][Bip]Q[NMeA][dL][Dab][Phe(4-NH2)]V[Orn]C[Dab]-NH2; thioether N-14)
0.02	Cc1cccc(C[C@@H]2NC(=O)[C@H](CC(=O)O)NC(=O)[C@H](Cc3ccc(OCC(=O)O)cc3)NC(=O)[C@H](CC3CCCCC3)NC(=O)CSC[C@@H](C(=O)N[C@@H](CCN)C(N)=O)NC(=O)[C@H](CCCN)NC(=O)[C@H](C(C)C)NC(=O)[C@H](Cc3cccc(N)c3)NC(=O)[C@H](CCN)NC(=O)[C@@H](CC(C)C)NC(=O)[C@H](C)N(C)C(=O)[C@H](CCC(N)=O)NC(=O)[C@H](Cc3ccc(-c4ccccc4)cc3)NC(=O)[C@H](Cc3ccc(C(=O)O)cc3)NC2=O)c1 [Example 5190] ({CH2CO}-[Cha]Y(Carboxymethyl)D[Phe(3-Me)][Phe(4-COOH)][Bip]Q[NMeA][dL][Dab][Phe(3-NH2)]V[Orn]C[Dab]-NH2; thioether N-14)

Same assay, conditions: Jurkat-PD-1 cells, Alexa fluor-647 labeled PD-L1-Ig 177 nM; nM; read-out: CBA Method 3

IC50 [µM]	SMILES
0.0039	Cc1cccc(C[C@@H]2NC(=O)[C@H](CC(=O)O)NC(=O)[C@H](Cc3ccc(OCC(=O)O)cc3)NC(=O)[C@H](CCN)NC(=O)CSC[C@@H](C(=O)N[C@@H](CCN)C(N)=O)NC(=O)[C@H](CCCN)NC(=O)[C@H](C(C)C)NC(=O)[C@H](CC3CCCCC3)NC(=O)[C@H](CCN)NC(=O)[C@@H](CC(C)C)NC(=O)[C@H](C)N(C)C(=O)[C@H](CCC(N)=O)NC(=O)[C@H](Cc3ccc(-c4ccccc4)cc3)NC(=O)[C@H](Cc3ccc(C(=O)O)cc3)NC2=O)c1 [Example 5179] ({CH2CO}-[Dab]Y(Carboxymethyl)D[Phe(3-Me)][Phe(4-COOH)][Bip]Q[NMeA][dL][Dab][Cha]V[Orn]C[Dab]-NH2; thioether N-14)
0.0068	Cc1cccc(C[C@@H]2NC(=O)[C@H](CC(=O)O)NC(=O)[C@H](Cc3ccc(OCC(=O)O)cc3)NC(=O)[C@H](CCCN)NC(=O)CSC[C@@H](C(=O)N[C@@H](CCN)C(N)=O)NC(=O)[C@H](CCCN)NC(=O)[C@H](C(C)C)NC(=O)[C@H](CC3CCCCC3)NC(=O)[C@H](CCN)NC(=O)[C@@H](CC(C)C)NC(=O)[C@H](C)N(C)C(=O)[C@H](CCC(N)=O)NC(=O)[C@H](Cc3ccc(-c4ccccc4)cc3)NC(=O)[C@H](Cc3ccc(C(=O)O)cc3)NC2=O)c1 [Example 5180] ({CH2CO}-[Orn]Y(Carboxymethyl)D[Phe(3-Me)][Phe(4-COOH)][Bip]Q[NMeA][dL][Dab][Cha]V[Orn]C[Dab]-NH2; thioether N-14)
0.0038	Cc1cccc(C[C@@H]2NC(=O)[C@H](CC(=O)O)NC(=O)[C@H](Cc3ccc(OCC(=O)O)cc3)NC(=O)[C@H](CCCCN)NC(=O)CSC[C@@H](C(=O)N[C@@H](CCN)C(N)=O)NC(=O)[C@H](CCCN)NC(=O)[C@H](C(C)C)NC(=O)[C@H](CC3CCCCC3)NC(=O)[C@H](CCN)NC(=O)[C@@H](CC(C)C)NC(=O)[C@H](C)N(C)C(=O)[C@H](CCC(N)=O)NC(=O)[C@H](Cc3ccc(-c4ccccc4)cc3)NC(=O)[C@H](Cc3ccc(C(=O)O)cc3)NC2=O)c1 [Example 5181] ({CH2CO}-KY(Carboxymethyl)D[Phe(3-Me)][Phe(4-COOH)][Bip]Q[NMeA][dL][Dab][Cha]V[Orn]C[Dab]-NH2; thioether N-14)
0.0023	Cc1cccc(C[C@@H]2NC(=O)[C@H](CC(=O)O)NC(=O)[C@H](Cc3ccc(OCC(=O)O)cc3)NC(=O)[C@H](CCCNC(=N)N)NC(=O)CSC[C@@H](C(=O)N[C@@H](CCN)C(N)=O)NC(=O)[C@H](CCCN)NC(=O)[C@H](C(C)C)NC(=O)[C@H](CC3CCCCC3)NC(=O)[C@H](CCN)NC(=O)[C@@H](CC(C)C)NC(=O)[C@H](C)N(C)C(=O)[C@H](CCC(N)=O)NC(=O)[C@H](Cc3ccc(-c4ccccc4)cc3)NC(=O)[C@H](Cc3ccc(C(=O)O)cc3)NC2=O)c1 [Example 5183] ({CH2CO}-RY(Carboxymethyl)D[Phe(3-Me)][Phe(4-COOH)][Bip]Q[NMeA][dL][Dab][Cha]V[Orn]C[Dab]-NH2; thioether N-14)
0.0011	Cc1cccc(C[C@@H]2NC(=O)[C@H](CC(=O)O)NC(=O)[C@H](Cc3ccc(OCC(=O)O)cc3)NC(=O)[C@H](CCCCNC(=N)N)NC(=O)CSC[C@@H](C(=O)N[C@@H](CCN)C(N)=O)NC(=O)[C@H](CCCN)NC(=O)[C@H](C(C)C)NC(=O)[C@H](CC3CCCCC3)NC(=O)[C@H](CCN)NC(=O)[C@@H](CC(C)C)NC(=O)[C@H](C)N(C)C(=O)[C@H](CCC(N)=O)NC(=O)[C@H](Cc3ccc(-c4ccccc4)cc3)NC(=O)[C@H](Cc3ccc(C(=O)O)cc3)NC2=O)c1 [Example 5184] ({CH2CO}-[hArg]Y(Carboxymethyl)D[Phe(3-Me)][Phe(4-COOH)][Bip]Q[NMeA][dL][Dab][Cha]V[Orn]C[Dab]-NH2; thioether N-14)
0.008	Cc1cccc(C[C@@H]2NC(=O)[C@H](CC(=O)O)NC(=O)[C@H](Cc3ccc(OCC(=O)O)cc3)NC(=O)[C@H](CC(N)=O)NC(=O)CSC[C@@H](C(=O)N[C@@H](CCN)C(N)=O)NC(=O)[C@H](CCCN)NC(=O)[C@H](C(C)C)NC(=O)[C@H](CC3CCCCC3)NC(=O)[C@H](CCN)NC(=O)[C@@H](CC(C)C)NC(=O)[C@H](C)N(C)C(=O)[C@H](CCC(N)=O)NC(=O)[C@H](Cc3ccc(-c4ccccc4)cc3)NC(=O)[C@H](Cc3ccc(C(=O)O)cc3)NC2=O)c1 [Example 5187] ({CH2CO}-NY(Carboxymethyl)D[Phe(3-Me)][Phe(4-COOH)][Bip]Q[NMeA][dL][Dab][Cha]V[Orn]C[Dab]-NH2; thioether N-14)
